The conditions of data set [1]: bovine, in vivo.
For data set [2] the following is noted: bovine, in vivo. This is another data set of the same source.

The values below come from patent publication US20250381200A1, “SINGLE-INJECTION METHODS AND FORMULATIONS TO CONTROL THE ONSET OF ESTRUS AND OVULATION IN BOVINE, CAPRINE, OVINE, CAMELID AND OTHER FEMALE ANIMALS” (Therio, LLC, priority 2024, published 2025).

Structures are written as SMILES. Where two headings read alike, the source gives them in different places.

As for `CC(=O)[C@H]1CC[C@H]2[C@@H]3CCC4=CC(=O)CC[C@]4(C)[C@H]3CC[C@]12C` [P4, progesterone], in data set [1], the “P4 concentration in the blood stream after decrease” value is 1.0-1.5 ng per ml; the “P4 concentration in the blood stream, achieved within 12 hours and maintained” value was 2.0 to 3.0 ng/mL. Moreover, in data set [2], the “P4 concentration in the blood stream after decrease” value was 0.2 to 0.6 ng/mL; the “P4 concentration in the blood stream, achieved and maintained” value is 2.0 to 3.0 ng/mL.
